From patent publication US12527886B2, “Radiopharmaceuticals and composition for thrombus imaging” (THE ASAN FOUNDATION, priority 2020, dated 2026)

Experiment: Stability of Tc-99m labeled compound, labeling purity by HPLC
Format: physicochemical
Conditions: 99mTc-labeled, cysteine and VB1, until 4 hours (Table 11)
Procedure: 2 mL of Tc-99m was added dropwise to a lyophilized vial including 0.1 mg of GP-104, 15 μg of SnCl2, and 10 μg of cysteine, the vial was allowed to stand at room temperature for 10 minutes, and the reaction was terminated by adjusting pH to 7 using a NaOH solution. Labeling purity was confirmed to be 93.21% by HPLC (analysis conditions: Luna C18 250×4.6 mm, phosphate buffer:acetonitrile (100:0, 0 to 5 minutes; 80:20, 5 to 10 minutes; 80:20, 17 minutes; 100:0, 17.1 minutes). 100:0. 20 min), 1.0 mL/min, UV=280 nm).
In order to confirm the effect of cysteine addition after the reaction, the following experiment was performed: 0.1 mg of GP-104 was dissolved in water for injection, the pH was adjusted to about 3.5 when 10 μL of SnCl2 (1.5 mg/mL) and 2 mL of Tc-99m were added thereto, and the resulting mixture was allowed to stand at room temperature for 10 minutes. The reaction was terminated by adjusting the pH to 7 using a NaOH solution and 10 μL of cysteine (1.0 mg/mL). Labeling purity was confirmed to be 91.4% using HPLC in the same manner as in Example 2-7.
After 0.1 mg of GP-104 was dissolved in water for injection, pH was adjusted to about 3.5 and the resulting solution was allowed to stand at room temperature for 10 minutes when 10 μL of SnCl2 (1.5 mg/mL), 10 μL of cysteine (1.0 mg/mL) and 2 mL of Tc-99m were added thereto, and the reaction was terminated by adjusting the pH to 7 using a NaOH solution. Labeling purity was confirmed to be 94.84% using HPLC in the same manner as in Example 2-7.
HCl and NaOH was additionally added dropwise to the solution of Example 2-8 to perform a stability evaluation by adjusting the final pH of the solution to acidic (pH 5.5) and basic (pH 8.5) conditions, and labeling purity was confirmed using HPLC in the same manner as in Example 2-7.
HCl and NaOH was additionally added dropwise to the solution of Example 2-9 to perform a stability evaluation by adjusting the final pH of the solution to acidic (pH 5.5) and basic (pH 8.5) conditions, and labeling purity was confirmed using HPLC in the same manner as in Example 2-7.
HCl and NaOH was additionally added dropwise to the solution of Example 2-10 to perform a stability evaluation by adjusting the final pH of the solution to acidic (pH 5.5) and basic (pH 8.5) conditions, and labeling purity was confirmed using HPLC in the same manner as in Example 2-7.
0.1 mg of GP-105 was dissolved in water for injection, the pH was adjusted to about 3.5 when 10 μL of SnCl2 (1.5 mg/mL) and 2 mL of Tc-99m were added thereto, and the resulting mixture was allowed to stand at room temperature for 10 minutes. The reaction was terminated by adjusting the pH to 7 using a NaOH solution and 10 μL of cysteine (1.0 mg/mL). Labeling purity was confirmed to be 98.1% using HPLC in the same manner as in Example 2-7.
HCl and NaOH was additionally added dropwise to the solution of Example 2-12 to perform a stability evaluation by adjusting the final pH of the solution to acidic (pH 5.5) and basic (pH 8.5) conditions, and labeling purity was confirmed using HPLC in the same manner as in Example 2-7.
HCl and NaOH was additionally added dropwise to the solution of Example 2-13 to perform a stability evaluation by adjusting the final pH of the solution to acidic (pH 5.5) and basic (pH 8.5) conditions, and labeling purity was confirmed using HPLC in the same manner as in Example 2-7.
HCl and NaOH was additionally added dropwise to the solution of Example 2-14 to perform a stability evaluation by adjusting the final pH of the solution to acidic (pH 5.5) and basic (pH 8.5) conditions, and labeling purity was confirmed using HPLC in the same manner as in Example 2-7.

radiochemical purity (acidic conditions): ≥ 98%
radiochemical purity (basic conditions): ≥ 90%
radiochemical purity (pH of 7): ≥ 94%
SMILES: O=C(O)C[C@H](NC(=O)[C@@H]1CCCN(C(=O)CCC2CCNCC2)C1)c1cncc(OCCNC(=O)CN(CC(=O)O)CC(=O)O)c1 [GP-105, 2,2′-((2-((2-((5-((S)-2-carboxy-1-((R)-1-(3-(piperidin-4-yl)propanoyl)piperidine-3-carboxamido)ethyl)pyridin-3-yl)oxy)ethyl)amino)-2-oxoethyl)azanediyl)diacetic acid]
